Source: patent US12678421B2, “Composition for enhancing NAMPT gene expression” (DAICEL CORPORATION, priority 2020, dated 2026)

Experiments:
PGC-1α = PGC-1α expression level and acetyl PGC-1α level in Caco-2 cells (Western blotting, immunoprecipitation); format: cell-based, human; details: 10 μM, 24 hours after addition, vs DMSO control (FIGS. 5-1, 5-2)
Protocol: (§1) Caco-2 cells were passaged in the same manner as in Example 1 and used for testing. Caco-2 cells were seeded in a 5-mL dish at a cell concentration of 3×10^5 cells/dish, and equol was added in the same manner as in Example 1. In addition, a control and a positive control were prepared in the same manner as well.
The medium was removed 24 hours after the addition of equol, the cells were washed with PBS, and then cellular proteins were extracted. The extracted proteins were subjected to Western blotting using an anti-PGC-1α antibody (ab77210, abcam, Cambridge, UK) to measure the expression level of PGC-1α. Furthermore, after immunoprecipitation using an anti-acetylated-lysine antibody (#9441S, Cell Signaling Technology, Danvers, MA, USA), the acetyl PGC-1α level was measured by Western blotting.

Caco-2 cells [1] = experiment: Intracellular mitochondria in Caco-2 cells (MitoTracker staining, imaging cytometer); format: cell-based, human; details: 10 μM, 24 hours after addition, vs DMSO control (FIG. 6)
Protocol: as §1, with “μClear Fluorescence Black Plate (Greiner Bio-one)” for “5-mL dish”, “5×10^3” for “3×10^5”
(§2) Mitochondria were stained using MotoTracker Red CMXRos (Invitrogen Corporation) 24 hours after the addition of equol. The cells were subjected to NI Cell Analyzer 1000 Imaging Cytometer (GE Healthcare Bio-Sciences Corp, Piscataway, NJ, USA) to detect intracellular mitochondria, and the image data were digitized using “mito Tracker” of NI Cell Analyzer 1000 Workstation (GE Healthcare Bio-Sciences Corp, Piscataway, NJ, USA).

C2C12 cells = experiment: Intracellular mitochondria in C2C12 myotubes (MitoTracker staining, imaging cytometer); format: cell-based, mouse; details: 10 μM, 72 hours after addition, vs DMSO control (FIG. 10)
Protocol: as §2
C2C12 cells were passaged in the same manner as in Example 7 and used for testing. C2C12 cells were seeded in a μClear Fluorescence Black Plate (Greiner Bio-one) at a cell concentration of 1×10^4 cells/well. After the cells reached about 90% confluence, the serum in the medium was replaced with inactivated horse serum, and the serum concentration was lowered to 2% to induce differentiation. Cells on day 5 after differentiation induction were used as C2C12 myotubes for testing.
Equol was added in the same manner as in Example 1. In addition, the same amount of DMSO was also used for a control.
The number of mitochondria was measured 72 hours after the addition of equol in the same manner as in Example 4.

PGC-1α gene [2] = experiment: PGC-1α gene expression in C2C12 cells (real-time PCR); format: cell-based, mouse; details: C2C12 cells (myotubes), 10 μM, 24 hours after addition, relative to β-actin, vs DMSO control (FIG. 9)
Protocol: (§3) Mouse skeletal muscle-derived myoblast cell line C2C12 cells (Muscle, Myoblast, Mus musculus, mouse, ATCC CRL-1772 (strain C3H)) were passaged using DMEM (containing 10% FBS, antibiotics (penicillin and streptomycin), and NaHCO3) medium in a CO2 incubator under conditions of 37° C., 5% CO2, and 95% air.
(§4) After the C2C12 cells reached about 90% confluence, the serum in the medium was replaced with inactivated horse serum, and the serum concentration was lowered to 2% to induce differentiation. Cells on day 5 after differentiation induction were used as C2C12 myotubes for testing.
(§5) C2C12 cells were seeded in a 12-well plate at a cell concentration of 3×10^5 cells/dish, and equol dissolved in DMSO was added at a final concentration of 10 μM after 24 hours and 48 hours. In addition, the same amount of DMSO was added to a control, and resveratrol was added to a positive control at a final concentration of 10 μM.
(§6) Cells were harvested 24 hours after the addition of equol, and total RNA was extracted. cDNA was synthesized using the total RNA and was used as a template for real-time PCR. […] In addition, the relative gene expression level was calculated using β-actin, which is a housekeeping gene, by dividing the measured value by the expression level of β-actin.

NAMPT gene [3] = experiment: NAMPT gene expression in Caco-2 cells (real-time PCR); format: cell-based, human; details: 10 μM, 24 hours after addition, relative to β-actin, vs DMSO control (FIG. 1)
Protocol: (§7) Human colon cancer-derived cell line Caco-2 cells (colon, epithelial-like, colorectal adenocarcinoma, human, ATCC HTB-37) were passaged using DMEM (containing 10% FBS, antibiotics (penicillin and streptomycin), and NaHCO3) medium in a CO2 incubator under conditions of 37° C., 5% CO2, and 95% air, and used for testing.
as §5, with “Caco-2” for “C2C12”, “resveratrol (Wako Pure Chemical Industries, Ltd.)” for “resveratrol”
(§8) Cells were harvested 24 hours after the addition of equol, and total RNA was extracted. cDNA was synthesized using the total RNA and was used as a template for real-time PCR. Real-time PCR was performed using a primer of each gene and the prepared cDNA to measure the expression level of each gene. In addition, the relative gene expression level was calculated using β-actin, which is a housekeeping gene, by dividing the measured value by the expression level of β-actin. The orientation of the primer sequences is 5′ to 3′ from left to right.

Caco-2 cells [4] = experiment: Intracellular NAD^+/NADH quantification in Caco-2 cells; format: cell-based, human; details: 10 μM, 24 hours after addition, vs DMSO control (FIG. 4)
Protocol: as §1
The medium was removed 24 hours after the addition of equol, the cells were washed with PBS, then intracellular NAD^+ and NADH were measured using an NAD^+/NADH quantification kit (BioVision, San Francisco, USA), and the NAD^+/NADH ratio was determined.

SIRT1 gene [5] = experiment: SIRT1 gene expression in Caco-2 cells (real-time PCR); format: cell-based, human; details: 10 μM, 24 hours after addition, relative to β-actin, vs DMSO control (FIG. 2)
Protocol: as §7
as §5, with “Caco-2” for “C2C12”, “resveratrol (Wako Pure Chemical Industries, Ltd.)” for “resveratrol”
as §8

SIRT1 gene [6] = experiment: SIRT1 gene expression in C2C12 cells (real-time PCR); format: cell-based, mouse; details: C2C12 cells (myotubes), 10 μM, 24 hours after addition, relative to β-actin, vs DMSO control (FIG. 8)
Protocol: as §3, §4, §5, §6

PGC-1α gene [7] = experiment: PGC-1α gene expression in Caco-2 cells (real-time PCR); format: cell-based, human; details: 10 μM, 24 hours after addition, relative to β-actin, vs DMSO control (FIG. 3)
Protocol: as §7
as §5, with “Caco-2” for “C2C12”, “resveratrol (Wako Pure Chemical Industries, Ltd.)” for “resveratrol”
as §8

NAMPT gene [8] = experiment: NAMPT gene expression in C2C12 cells (real-time PCR); format: cell-based, mouse; details: C2C12 cells (myotubes), 10 μM, 24 hours after addition, relative to β-actin, vs DMSO control (FIG. 7)
Protocol: as §3, §4, §5, §6

Oc1ccc([C@H]2COc3cc(O)ccc3C2)cc1 [equol, 4′,7-isoflavandiol] was tested, and the “deacetylation of PGC-1α (acetyl PGC-1α level)” value (PGC-1α) was “promote deacetylation of PGC-1α”, the “expression level of PGC-1α (protein, Western blotting)” value (PGC-1α) was “increased the expression level of PGC-1α” and the “number of intracellular mitochondria” value (Caco-2 cells [1]) was “increased the number of intracellular mitochondria”. For the same molecule, the “number of intracellular mitochondria” value (C2C12 cells) was “increased the number of intracellular mitochondria”, the “expression level of PGC-1α gene” value (PGC-1α gene [2]) was “increased the expression levels” and the “expression level of NAMPT gene” value (NAMPT gene [3]) was “increased the expression levels”. For the same molecule, the “NAD^+ (NAD^+/NADH ratio)” value (Caco-2 cells [4]) was “increased NAD^+”, the “expression level of SIRT1 gene” value (SIRT1 gene [5]) was “increased the expression levels” and the “expression level of SIRT1 gene” value (SIRT1 gene [6]) was “increased the expression levels”. The “expression level of PGC-1α gene” value (PGC-1α gene [7]) was “increased the expression levels” and the “expression level of NAMPT gene” value (NAMPT gene [8]) was “increased the expression levels”.
